The record followed here is ChEMBL document CHEMBL3758091, “Identification of N-(6-mercaptohexyl)-3-(4-pyridyl)-1H-pyrazole-5-carboxamide and its disulfide prodrug as potent histone deacetylase inhibitors with in vitro and in vivo anti-tumor efficacy” (Eur J Med Chem, 2016).

Where only a bound is given, the exact number is not on record here.

One data set deals with MCF7. The data set can be described thus: cells. Conditions: Homo sapiens, MCF7, 96 h. In kind it is functional.
In the next data set the target is Histone deacetylase 1 (Homo sapiens, UniProt Q13547). Kind of data set: Inhibition of recombinant human HDAC1 using Boc-Lys(Ac)-AMC as substrate preincubated for 15 mins followed by substrate addition measured after 60 mins by fluorescence-based assay.
Histone deacetylase 1, sequence (Q13547 whole entry): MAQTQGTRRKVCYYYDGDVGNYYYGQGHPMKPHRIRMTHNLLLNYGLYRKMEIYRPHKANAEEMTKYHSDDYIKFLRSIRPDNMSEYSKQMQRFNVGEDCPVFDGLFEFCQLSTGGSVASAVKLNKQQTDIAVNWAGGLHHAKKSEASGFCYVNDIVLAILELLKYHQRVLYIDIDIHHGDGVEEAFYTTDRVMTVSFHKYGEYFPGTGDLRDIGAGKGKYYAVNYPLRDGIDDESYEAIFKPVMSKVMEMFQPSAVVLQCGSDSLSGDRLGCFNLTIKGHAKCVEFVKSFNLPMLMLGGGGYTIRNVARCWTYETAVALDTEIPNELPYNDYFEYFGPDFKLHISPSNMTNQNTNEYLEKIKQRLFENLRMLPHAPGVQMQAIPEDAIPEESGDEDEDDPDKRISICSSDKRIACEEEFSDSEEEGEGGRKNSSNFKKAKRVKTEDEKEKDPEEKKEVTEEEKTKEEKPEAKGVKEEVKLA
Data set [1] has as its target T1, Protein deacetylase HDAC6 (Homo sapiens, UniProt Q9UBN7).
T1 sequence (Q9UBN7 whole entry): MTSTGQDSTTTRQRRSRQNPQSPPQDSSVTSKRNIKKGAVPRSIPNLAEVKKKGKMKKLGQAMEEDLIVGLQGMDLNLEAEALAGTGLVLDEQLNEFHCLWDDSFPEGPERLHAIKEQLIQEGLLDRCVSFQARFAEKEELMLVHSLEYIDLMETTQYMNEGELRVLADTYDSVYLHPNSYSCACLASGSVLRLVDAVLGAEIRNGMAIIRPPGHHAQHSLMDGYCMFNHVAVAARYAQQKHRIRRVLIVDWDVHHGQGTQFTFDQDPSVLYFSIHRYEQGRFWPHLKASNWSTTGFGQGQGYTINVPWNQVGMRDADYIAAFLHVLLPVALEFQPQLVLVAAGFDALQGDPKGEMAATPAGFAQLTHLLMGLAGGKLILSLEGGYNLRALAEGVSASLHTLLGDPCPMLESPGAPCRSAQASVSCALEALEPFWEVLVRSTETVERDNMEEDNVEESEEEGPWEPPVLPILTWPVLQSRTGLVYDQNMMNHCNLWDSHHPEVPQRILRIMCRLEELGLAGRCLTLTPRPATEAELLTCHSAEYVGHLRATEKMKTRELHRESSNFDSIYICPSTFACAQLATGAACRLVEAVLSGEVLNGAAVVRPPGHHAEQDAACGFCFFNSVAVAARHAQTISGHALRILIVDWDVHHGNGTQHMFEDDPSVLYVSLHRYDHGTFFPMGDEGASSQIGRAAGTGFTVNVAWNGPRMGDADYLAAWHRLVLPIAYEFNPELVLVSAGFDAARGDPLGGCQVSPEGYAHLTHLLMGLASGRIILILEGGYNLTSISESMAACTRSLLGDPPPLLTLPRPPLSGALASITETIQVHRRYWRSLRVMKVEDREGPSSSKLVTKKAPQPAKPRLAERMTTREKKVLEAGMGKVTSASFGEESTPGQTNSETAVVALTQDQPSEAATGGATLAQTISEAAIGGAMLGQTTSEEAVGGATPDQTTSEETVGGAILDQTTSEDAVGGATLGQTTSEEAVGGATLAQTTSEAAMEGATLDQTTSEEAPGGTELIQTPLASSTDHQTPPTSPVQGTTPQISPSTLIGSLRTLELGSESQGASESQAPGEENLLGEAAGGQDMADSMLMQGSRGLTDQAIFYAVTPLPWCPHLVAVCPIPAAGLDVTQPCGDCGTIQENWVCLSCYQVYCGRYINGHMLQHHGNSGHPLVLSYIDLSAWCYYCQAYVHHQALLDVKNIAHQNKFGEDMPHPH
Kind of data set: Inhibition of recombinant human HDAC6 using Boc-Lys(Ac)-AMC as substrate preincubated for 15 mins followed by substrate addition measured after 60 mins by fluorescence-based assay.

A short description of data set [2]: cells. In kind it is functional. The conditions noted are these: Homo sapiens, HCT-116, 96 h.
Description: Growth inhibition of human HCT116 cells after 96 hrs by MTT assay
In another data set the target is Histone deacetylase. Kind of data set: Inhibition of HDAC in human HeLa cell nuclear extract using Boc-Lys(Ac)-AMC as substrate preincubated for 15 mins followed by substrate addition measured after 60 mins by fluorescence-based assay.
The subject of another data set is MDA-MB-231. Kind of data set: cells. In kind it is functional. The conditions noted are these: Homo sapiens, MDA-MB-231, 96 h.
Data set [3] is described as follows: cells. In kind it is functional. Conditions: Homo sapiens, ASPC1, 96 h.
Description: Growth inhibition of human Aspc-1 cells after 96 hrs by MTT assay
The subject of another data set is HT-29. The data set can be described thus: Growth inhibition of human HT-29 cells after 96 hrs by MTT assay. The conditions noted are these: Homo sapiens, HT-29, 96 h. In kind it is functional.
Data set [4] in a line: Cytotoxicity against HEK293 cells assessed as growth inhibition after 96 hrs by MTT assay. The conditions noted are these: human.
Another data set has as its system A549. The data set can be described thus: cells. In kind it is functional. The conditions noted are these: Homo sapiens, A549, 96 h.
Data set [5] is described as follows: cells. In kind it is functional. Conditions: Homo sapiens, PC-3, 96 h.
Description: Growth inhibition of human PC3 cells after 96 hrs by MTT assay

Description for A549: Growth inhibition of human A549 cells after 96 hrs by MTT assay
Description for MCF7: Growth inhibition of human MCF7 cells after 96 hrs by MTT assay
Description for MDA-MB-231: Growth inhibition of human MDA-MB-231 cells after 96 hrs by MTT assay

Consider `O=C(NCCCCCCS)c1cc(-c2ccc(-c3ccccc3)cc2)n[nH]1`, for which the GI50 in the data set on MCF7 and in the data set “cells [2]” was more than 50 µM in each case. Further, the half-inhibitory concentration (IC50) on Histone deacetylase 1 was found to be 0.225 µM; in [1], 0.106 µM; against Histone deacetylase, 0.043 µM.
`O=C(NCCCCCCS)c1cc(-c2ccccn2)n[nH]1`: the GI50 in the data set on MCF7 was 26.8 µM; in the data set “cells [2]”, more than 50 µM. In addition, the IC50 was 0.124 µM at Histone deacetylase 1, 0.027 µM in data set [1] and 0.033 µM on Histone deacetylase.
In the case of `O=C(NCCCCCCS)c1ccn[nH]1`, the GI50 in the data set with MCF7 and in the data set “cells [2]” was more than 50 µM throughout. The IC50 on Histone deacetylase 1 was 0.526 µM; in data set [1], 0.092 µM; on Histone deacetylase, 0.081 µM.
For `O=C(NCCCCCCS)c1cc(-c2c[nH]c3ccccc23)n[nH]1`, the values for the GI50 in the data set with MCF7 and in the data set “cells [2]” were 18.2 µM and more than 50 µM, respectively. For the same molecule, the IC50 on Histone deacetylase 1 amounted to 0.15 µM; in data set [1] it was 0.033 µM; against Histone deacetylase it was 0.07 µM.
In the case of `COc1ccc(-c2cc(C(=O)NCCCCCCS)[nH]n2)cc1`, the GI50 was 14.8 µM in the data set on MCF7 and more than 50 µM in the data set “cells [2]”. Further, the IC50 in data set [1] worked out at 0.167 µM; against Histone deacetylase, 0.15 µM.
In the case of `O=C(OCc1ccccc1)SCCCCCCNC(=O)c1cc(-c2ccncc2)n[nH]1`, the concentration for 50% growth inhibition (GI50) amounted to 24.7 µM in the data set with MDA-MB-231; 32.3 µM in the data set “cells [3]”; 22 µM with HT-29; 13.4 µM in the data set with A549; 8.37 µM in the data set on MCF7; 15.4 µM in “cells [5]”. The molecule also returned a GI50 in “cells [2]” of 18.2 µM. Besides, the GI50 at 96 h in data set [4] was determined as 19.7 µM.
On to `O=C(NCCCCCCS)c1cc(-c2ccc(F)cc2)n[nH]1`, for which the GI50 in the data set on MCF7 and in “cells [2]” was more than 50 µM each time. On Histone deacetylase, this molecule had an IC50 of 0.245 µM.
On to `CC(C)C(=O)SCCCCCCNC(=O)c1cc(-c2ccncc2)n[nH]1`, for which the GI50 with MDA-MB-231 is more than 50 µM; in the data set “cells [3]”, 31.7 µM; with HT-29 it was 25.7 µM; in the data set with A549 it was 16.8 µM; in the data set on MCF7 it was 15.2 µM; in the data set “cells [5]”, 22.4 µM. The same molecule displayed a GI50 in “cells [2]” of 22.7 µM. The GI50 at 96 h in [4] is more than 50 µM.
In the case of `CSCCCCCCNC(=O)c1cc(-c2ccncc2)n[nH]1`, the GI50 with MDA-MB-231, in the data set “cells [3]”, in the data set with HT-29, in the data set with A549, in the data set on MCF7 and in the data set “cells [5]” was more than 50 µM each time. This molecule also came in with a GI50 in the data set “cells [2]” of more than 50 µM. The GI50 at 96 h in [4] is more than 50 µM.
As for `O=C(NCCCCCCS)c1cc(-c2ccc3ccccc3c2)n[nH]1`, the concentration for 50% growth inhibition (GI50) in the data set with MCF7 and in the data set “cells [2]” was more than 50 µM throughout. Also, the IC50 at Histone deacetylase 1 was 0.133 µM; in data set [1], 0.235 µM; at Histone deacetylase, 0.102 µM.
For `COc1ccc(-c2cc(C(=O)NCCCCCCS)[nH]n2)cc1OC`, the GI50 in the data set with MCF7 is 30.8 µM; in the data set “cells [2]”, more than 50 µM. Besides, the IC50 at Histone deacetylase 1 worked out at 0.31 µM; in data set [1], 0.056 µM; against Histone deacetylase it was 0.056 µM.
On to `Cc1cc(C(=O)NCCCCCCS)[nH]n1`, for which the GI50 in the data set on MCF7 and in “cells [2]” was more than 50 µM in each case. The 50% inhibitory concentration (IC50) on Histone deacetylase was determined as 0.715 µM.
For `CCC(=O)SCCCCCCNC(=O)c1cc(-c2ccncc2)n[nH]1`, the concentration for 50% growth inhibition (GI50) in the data set on MDA-MB-231, in “cells [3]”, in the data set on HT-29, in the data set with A549, in the data set on MCF7 and in the data set “cells [5]” was more than 50 µM each time. For the same molecule, in the data set “cells [2]”, the GI50 was more than 50 µM. Further, the GI50 at 96 h in data set [4] is more than 50 µM.
Regarding `C=CCOC(=O)SCCCCCCNC(=O)c1cc(-c2ccncc2)n[nH]1`, the GI50 in the data set with MDA-MB-231 amounted to 36 µM; in the data set “cells [3]” it was 27.5 µM; with HT-29, 11.9 µM; in the data set with A549, 15.2 µM; with MCF7, 12.6 µM; in “cells [5]”, 24.8 µM. The molecule further displayed a GI50 in the data set “cells [2]” of 32.9 µM. Also, the GI50 at 96 h in data set [4] was 27.5 µM.
Take `O=C(NCCCCCCS)c1cc(-c2cccc3ccccc23)n[nH]1`: the GI50 in the data set on MCF7 and in the data set “cells [2]” was more than 50 µM each time. Further, the IC50 on Histone deacetylase 1 came out at 0.429 µM; in data set [1] it was 0.244 µM; against Histone deacetylase, 0.608 µM.
As to `O=C(NCCCCCCS)c1cc(C2CCCCC2)n[nH]1`, the GI50 with MCF7 and in the data set “cells [2]” was more than 50 µM throughout. The figures for the IC50 (on Histone deacetylase 1; in [1]; against Histone deacetylase) were 0.331 µM, 0.241 µM and 0.364 µM, respectively.
Regarding `O=C(NCCCCCCS)c1cc(-c2ccccc2)n[nH]1`, the concentration for 50% growth inhibition (GI50) in the data set on MCF7 and in “cells [2]” was more than 50 µM each time. Also, the values for the IC50 (at Histone deacetylase 1; in [1]; at Histone deacetylase) were 0.098 µM, 0.03 µM and 0.023 µM, respectively.
Regarding `O=C(CCCCCCS)Nc1ccccc1`, the GI50 with MCF7 and in “cells [2]” was more than 50 µM throughout.
Turning to `CCCC(=O)SCCCCCCNC(=O)c1cc(-c2ccncc2)n[nH]1`, the GI50 in the data set with MDA-MB-231 was more than 50 µM; in “cells [3]”, 28.1 µM; with HT-29, 12.4 µM; with A549, 15.1 µM; in the data set on MCF7, 12.1 µM; in “cells [5]”, 32.1 µM. This molecule also yielded a GI50 in “cells [2]” of 23.5 µM. Further, in data set [4], the GI50 at 96 h is more than 50 µM.
In the case of `CC(=O)SCCCCCCNC(=O)c1cc(-c2ccncc2)n[nH]1`, the 50% growth inhibitory concentration (GI50) in the data set with MDA-MB-231 was more than 50 µM; in the data set “cells [3]”, more than 50 µM; in the data set with HT-29 it was 23.1 µM; with A549 it was 18 µM; in the data set with MCF7, 24.9 µM; in the data set “cells [5]”, 36 µM. In “cells [2]”, this molecule returned a GI50 of 41.1 µM. The GI50 at 96 h in data set [4] was more than 50 µM.
For the molecule `COc1cc(-c2cc(C(=O)NCCCCCCS)[nH]n2)cc(OC)c1OC`, the concentration for 50% growth inhibition (GI50) in the data set with MCF7 and in “cells [2]” was more than 50 µM throughout. In addition, the values for the IC50 (on Histone deacetylase 1; in data set [1]; at Histone deacetylase) were 0.422 µM, 0.084 µM and 0.102 µM, respectively.
As to `CCCCCCCC/C=C\CCCCCCCC(=O)SCCCCCCNC(=O)c1cc(-c2ccncc2)n[nH]1`, the GI50 in the data set with MDA-MB-231 was more than 50 µM; in “cells [3]” it was more than 50 µM; in the data set on HT-29 it was 23.5 µM; with A549 it was 33.3 µM; in the data set on MCF7, 31.1 µM; in “cells [5]”, more than 50 µM. The molecule also registered a GI50 in “cells [2]” of 39.3 µM. Also, the GI50 at 96 h in [4] is more than 50 µM.
